In patent US8980226B2, “Aerosolized fosfomycin/aminoglycoside combination for the treatment of bacterial respiratory infections” (Gilead Sciences, Inc., priority 2004, dated 2015):

test system: P. aeruginosa ATCC 27853; experiment: MBC/MIC, broth microdilution; format: cell-based; conditions: aminoglycoside alone
Protocol: “Minimal bactericidal concentration (MBC)” means the lowest concentration of antibiotic that results in ≧3 Log10 of bacterial killing.
The MICs of amikacin, arbekacin, dibekacin, gentamicin, kanamycin, netilimicin, neomycin, streptomycin, and tobramycin alone were determined for P. aeruginosa ATCC 27853 by the broth-microdilution method according to NCCLS standards (NCCLS, 2003). E. coli ATCC 25922 and S. aureus ATCC 29213 were used as quality control stains. Bacterial strains were streaked onto blood agar plates, and incubated at 35° C. for 18 hours. Two to three bacterial colonies from the overnight cultures were inoculated into 3 mL of sterile normal saline, vortexed briefly, and adjusted to a 0.5 McFarland standard (NCCLS, 2003). The bacterial suspension was diluted 1:100 in cation-adjusted Mueller-Hinton broth (hereafter referred to as CAMHB). Fifty microliters of bacterial inoculum (approximately 2×10^5 CFU/mL) was pipeted into individual wells of 96-well plates containing 50 μl of CAMHB (Remel, Lenexa, Kanas) supplemented with 2-fold dilutions of antibiotics ranging in concentration from 0.125 μg/mL to 128 μg/mL. The MIC was defined as the lowest concentration of antibiotic (s) that prevented visible growth after incubation at 35° C. for 18-24 hours.
The MBCs of fosfomycin, amikacin, arbekacin, dibikacin, gentamicin, kanamycin B, netilimicin, neomycin, streptomycin, or tobramycin alone for P. aeruginosa ATCC 27853, E. coli ATCC 25922, and S. aureus ATCC 29213 were determined by the broth microdilution method according to NCCLS standards (NCCLS, 1999). Bacterial strains were streaked onto blood agar plates and incubated at 35° C. for 18-24 hours. Two to three bacterial colonies from the overnight cultures were inoculated into 3 mL of sterile normal saline, vortexed briefly, and adjusted to a 0.5 McFarland standard (NCCLS, 2003). Fifty microliters of bacterial inoculum (approximately 2×10^5 CFU/mL) was pipeted into individual wells of 96-well plates containing 50 μl of CAMHB (Remel, Lenexa, Kanas) supplemented with 2-fold dilutions of antibiotics ranging in concentration from 0.125 μg/mL to 128 μg/mL. Plates were incubated at 35° C. for 18-24 hours and MIC determined as described in Example 5, Method C. The contents of wells showing no growth (MIC and above) were mixed with a pipetor and duplicate 10 μl samples spread onto blood agar plates. Culture plates were incubated at 35° C. for 18-24 hours and the number of bacterial colonies on each plate enumerated manually. Rejection values were determined by NCCLS methods which considers the final inoculum size, single or double sampling, pipetting error, and the Poisson distribution of sample responses (NCCLS, 1999). […] The MBC was defined as the ≧3 Log10 decrease in CFU/mL of the original inoculum as described by NCCLS standards (NCCLS, 1999). The MBC/MIC ratios were calculated by dividing the MBC by the MIC.

Row | Compound | MBC/MIC Aminoglycoside
1 | NC[C@@H]1CC[C@@H](N)[C@@H](O[C@H]2[C@H](O)[C@@H](O[C@H]3O[C@H](CO)[C@@H](O)[C@H](N)[C@H]3O)[C@H](N)C[C@@H]2N)O1 [Dibekacin, dibekacin] | 1
2 | CCN[C@@H]1C[C@H](N)[C@@H](O[C@H]2OC(CN)=CC[C@H]2N)[C@H](O)[C@H]1O[C@H]1OC[C@](C)(O)[C@H](NC)[C@H]1O [Netilimicin, netilmicin] | 1
3 | neomycin | 2
4 | [H]/N=C(/N)N[C@H]1[C@H](O)[C@@H](O)[C@H](O[C@@H]2O[C@@H](C)[C@](O)(C=O)[C@H]2O[C@@H]2O[C@@H](CO)[C@H](O)[C@@H](O)[C@@H]2NC)[C@@H](N/C(N)=N\[H])[C@@H]1O [Streptomycin, streptomycin] | 4
5 | NCC[C@H](O)C(=O)N[C@@H]1C[C@H](N)[C@@H](O[C@H]2O[C@H](CN)[C@@H](O)[C@H](O)[C@H]2O)[C@H](O)[C@H]1O[C@H]1O[C@H](CO)[C@@H](O)[C@H](N)[C@H]1O [Amikacin, amikacin] | 2
6 | gentamicin | 2
7 | NCC[C@H](O)C(=O)N[C@@H]1C[C@H](N)[C@@H](O[C@H]2O[C@H](CN)CC[C@H]2N)[C@H](O)[C@H]1O[C@H]1O[C@H](CO)[C@@H](O)[C@H](N)[C@H]1O [Arbekacin, arbekacin] | 1
